Tested on: K-Ras 4B
Assay: Prenylation of K-ras 4B in intact cells (immunoblot, densitometric scanning)
Type: cell-based
Conditions: 5 μM hydrolysed lovastatin alone (Compound 1 at 0); NIH-3T3 transfectant overexpressing mutant K-Ras 4B; 18 hours at 37° C.

Structure (SMILES): CC[C@H](C)C(=O)O[C@H]1C[C@@H](C)C=C2C=C[C@H](C)[C@H](CC[C@@H]3C[C@@H](O)CC(=O)O3)[C@H]21 [Lovastatin, lovastatin]
- % Inhibition OF K-Ras 4B Prenylation: 23%
